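Assay format: 96-well plates, 48-hour exposure. GI50 marks 50% less growth.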 Active and inactive are the calls of the source. Cut-off read from the data, not from the text of the source: active = GI50 up to about 1.1 µM and inactive = higher.
Columns and labels:
Test in all cases: growth of human tumour cells (NCI), 48 h
786-0 = tested on: 786-0
A549 = tested on: A549
ACHN = tested on: ACHN
COLO 205 = tested on: COLO 205
HCC 2998 = tested on: HCC 2998
HCT-15 = tested on: HCT-15
HL-60 = tested on: HL-60
HOP-62 = tested on: HOP-62
MCF7 = tested on: MCF7
MDA-N = tested on: MDA-N
NCI-H226 = tested on: NCI-H226
NCI-H23 = tested on: NCI-H23
OVCAR-5 = tested on: OVCAR-5
OVCAR-8 = tested on: OVCAR-8
SNB-75 = tested on: SNB-75
SR = tested on: SR
T47D = tested on: T47D
TK-10 = tested on: TK-10
U-251 = tested on: U-251
UACC-257 = tested on: UACC-257

Q: For COC(=O)C1OC(O[C@H]2CC[C@]3(C)[C@H]4CC=C5[C@@H]6CC(C)(C)CC[C@]6(C(=O)OC6OCC(O)C(O)C6OC6OC(C)C(OC7OCC(O)C(O)C7O)C(OC7OCC(O)(CO)C7O)C6O)[C@H](O)C[C@@]5(C)[C@]4(C)CC[C@H]3C2(C)C)C(O)C(O)C1O (stereo not given in full), which GI50 (786-0) is on record?
A: 7.45 µM (inactive)

Q: And the GI50 (A549)?
A: 3.52 µM (inactive)

Q: And the GI50 (ACHN)?
A: 3.31 µM (inactive)

Q: What about the GI50 (COLO 205) of the same compound?
A: 1.57 µM (inactive)

Q: What about the GI50 (HCC 2998) of the same compound?
A: 2.29 µM (inactive)

Q: And the GI50 (HCT-15)?
A: 10.3 µM

Q: And the GI50 (HL-60)?
A: 2.35 µM (inactive)

Q: And the GI50 (HOP-62)?
A: 3.13 µM (inactive)

Q: What about the GI50 (MCF7) of the same compound?
A: 1.38 µM (inactive)

Q: And the GI50 (MDA-N)?
A: 2.01 µM (inactive)

Q: And the GI50 (NCI-H226)?
A: 4.23 µM (inactive)

Q: What about the GI50 (NCI-H23) of the same compound?
A: 1.8 µM (inactive)

Q: What about the GI50 (OVCAR-5) of the same compound?
A: 3.97 µM (inactive)

Q: What about the GI50 (OVCAR-8) of the same compound?
A: 10.5 µM (inactive)

Q: What about the GI50 (SNB-75) of the same compound?
A: 6.27 µM (inactive)

Q: What about the GI50 (SR) of the same compound?
A: 2.08 µM (inactive)

Q: And the GI50 (T47D)?
A: 3.86 µM (inactive)

Q: What about the GI50 (TK-10) of the same compound?
A: 15.9 µM (inactive)

Q: What about the GI50 (U-251) of the same compound?
A: 6.5 µM (inactive)

Q: What about the GI50 (UACC-257) of the same compound?
A: 2.96 µM (inactive)

Q: What does the source list for CO/N=C1\CC(C)N2C(=O)C(C(C)C)NC(=O)C(NC(=O)c3c4nc5c(C(=O)NC6C(=O)NC(C(C)C)C(=O)N7C(C)CC(O)C7C(=O)N(C)CC(=O)N(C)C(C(C)C)C(=O)OC6C)ccc(C)c5oc-4c(C)c(=O)c3N)C(CO)OC(=O)C(C)N(C)C(=O)CN(C)C(=O)C12 (stereo not given)?
A: GI50 (786-0): 1.01 µM (active); GI50 (A549): 0.815 µM (active); GI50 (ACHN): 1.26 µM (inactive); GI50 (COLO 205): 0.411 µM (active); GI50 (HCC 2998): 0.869 µM (active); GI50 (HCT-15): 7.01 µM; GI50 (HL-60): 0.555 µM (active); GI50 (HOP-62): 1.57 µM (inactive); GI50 (MCF7): 0.34 µM (active); GI50 (MDA-N): 0.773 µM (active); GI50 (NCI-H226): 1.05 µM (active); GI50 (NCI-H23): 1.43 µM (inactive); GI50 (OVCAR-5): 6.92 µM (inactive); GI50 (OVCAR-8): 0.617 µM (active); GI50 (SNB-75): 0.883 µM (active); GI50 (SR): 0.0184 µM (active); GI50 (T47D): 0.574 µM (active); GI50 (TK-10): 5.48 µM (inactive); GI50 (U-251): 0.242 µM (active); GI50 (UACC-257): 0.65 µM (active)

Q: With COC(=O)c1ccccc1/C=C1\Cc2ccc3c(c2C1=O)CCC3 as the compound, how does the GI50 (786-0) read?
A: > 100 µM (inactive)

Q: And the GI50 (A549)?
A: > 100 µM (inactive)

Q: And the GI50 (ACHN)?
A: > 100 µM (inactive)

Q: And the GI50 (COLO 205)?
A: > 100 µM (inactive)

Q: What about the GI50 (HCC 2998) of the same compound?
A: > 100 µM (inactive)

Q: And the GI50 (HCT-15)?
A: > 100 µM

Q: What about the GI50 (HL-60) of the same compound?
A: > 100 µM (inactive)

Q: And the GI50 (HOP-62)?
A: > 100 µM (inactive)

Q: And the GI50 (MCF7)?
A: > 100 µM (inactive)

Q: And the GI50 (MDA-N)?
A: > 100 µM (inactive)

Q: What about the GI50 (NCI-H226) of the same compound?
A: > 100 µM (inactive)

Q: What about the GI50 (NCI-H23) of the same compound?
A: > 100 µM (inactive)

Q: And the GI50 (OVCAR-5)?
A: > 100 µM (inactive)

Q: What about the GI50 (OVCAR-8) of the same compound?
A: > 100 µM (inactive)

Q: And the GI50 (SNB-75)?
A: > 100 µM (inactive)

Q: What about the GI50 (SR) of the same compound?
A: > 100 µM (inactive)

Q: And the GI50 (T47D)?
A: > 100 µM (inactive)

Q: What about the GI50 (TK-10) of the same compound?
A: > 100 µM (inactive)

Q: What about the GI50 (U-251) of the same compound?
A: > 100 µM (inactive)

Q: And the GI50 (UACC-257)?
A: > 100 µM (inactive)

Q: How did the GI50 (786-0) turn out when NCCN(CCN)/[N+]([O-])=N/O was run?
A: > 100 µM (inactive)

Q: And the GI50 (A549)?
A: > 100 µM (inactive)

Q: And the GI50 (ACHN)?
A: > 100 µM (inactive)

Q: What about the GI50 (COLO 205) of the same compound?
A: > 100 µM (inactive)

Q: And the GI50 (HCC 2998)?
A: > 100 µM (inactive)

Q: And the GI50 (HCT-15)?
A: > 100 µM

Q: What about the GI50 (HL-60) of the same compound?
A: > 100 µM (inactive)

Q: What about the GI50 (HOP-62) of the same compound?
A: > 100 µM (inactive)

Q: And the GI50 (MCF7)?
A: 47.4 µM (inactive)

Q: What about the GI50 (MDA-N) of the same compound?
A: > 100 µM (inactive)

Q: What about the GI50 (NCI-H226) of the same compound?
A: > 100 µM (inactive)

Q: And the GI50 (NCI-H23)?
A: > 100 µM (inactive)

Q: And the GI50 (OVCAR-5)?
A: > 100 µM (inactive)

Q: And the GI50 (OVCAR-8)?
A: > 100 µM (inactive)

Q: What about the GI50 (SNB-75) of the same compound?
A: > 100 µM (inactive)

Q: And the GI50 (SR)?
A: 91.2 µM (inactive)

Q: What about the GI50 (T47D) of the same compound?
A: > 100 µM (inactive)

Q: What about the GI50 (TK-10) of the same compound?
A: > 100 µM (inactive)

Q: And the GI50 (U-251)?
A: > 100 µM (inactive)

Q: What about the GI50 (UACC-257) of the same compound?
A: > 100 µM (inactive)

Q: Which results are given for NNC(=O)Nc1nc2ccc(NN)cc2[nH]1?
A: GI50 (786-0): 31.3 µM (inactive); GI50 (A549): 74 µM (inactive); GI50 (ACHN): 29 µM (inactive); GI50 (COLO 205): 16.5 µM (inactive); GI50 (HCC 2998): 18.5 µM (inactive); GI50 (HCT-15): 31.3 µM; GI50 (HL-60): 12.5 µM (inactive); GI50 (HOP-62): 44.4 µM (inactive); GI50 (MCF7): 26.1 µM (inactive); GI50 (MDA-N): 28.2 µM (inactive); GI50 (NCI-H226): 20.2 µM (inactive); GI50 (NCI-H23): 44.1 µM (inactive); GI50 (OVCAR-5): > 100 µM (inactive); GI50 (OVCAR-8): 54 µM (inactive); GI50 (SNB-75): 25.6 µM (inactive); GI50 (SR): 19.5 µM (inactive); GI50 (T47D): 26.4 µM (inactive); GI50 (TK-10): 36 µM (inactive); GI50 (U-251): 37 µM (inactive); GI50 (UACC-257): 31.8 µM (inactive)

Q: What does the source list for CCCCCCCCCCC(C(=O)O)C1(C(=O)O)CCC(=O)O1 (stereo not given)?
A: GI50 (786-0): > 100 µM (inactive); GI50 (A549): > 100 µM (inactive); GI50 (ACHN): > 100 µM (inactive); GI50 (COLO 205): > 100 µM (inactive); GI50 (HCC 2998): > 100 µM (inactive); GI50 (HCT-15): > 100 µM; GI50 (HL-60): 90.8 µM (inactive); GI50 (HOP-62): > 100 µM (inactive); GI50 (MCF7): > 100 µM (inactive); GI50 (MDA-N): > 100 µM (inactive); GI50 (NCI-H226): > 100 µM (inactive); GI50 (NCI-H23): > 100 µM (inactive); GI50 (OVCAR-5): > 100 µM (inactive); GI50 (OVCAR-8): > 100 µM (inactive); GI50 (SNB-75): > 100 µM (inactive); GI50 (SR): > 100 µM (inactive); GI50 (T47D): > 100 µM (inactive); GI50 (TK-10): > 100 µM (inactive); GI50 (U-251): > 100 µM (inactive); GI50 (UACC-257): > 100 µM (inactive)
